The source of these data is US9174951B2, “Glucose transporter inhibitors” (The Ohio State University Research Foundation, priority 2012, dated 2015).

SMILES strings stand for the structures.

Holding throughout (assay type): cell-based
One experiment concerns the target T1, GLUT3 (Homo sapiens, UniProt P11169).
T1 construct: GLUT3 ORF cDNA was purchased from Origene Technologies; EGFP (from the pEGFP-N2 vector); host or cells: LNCaP
T1 sequence (P11169 1-496): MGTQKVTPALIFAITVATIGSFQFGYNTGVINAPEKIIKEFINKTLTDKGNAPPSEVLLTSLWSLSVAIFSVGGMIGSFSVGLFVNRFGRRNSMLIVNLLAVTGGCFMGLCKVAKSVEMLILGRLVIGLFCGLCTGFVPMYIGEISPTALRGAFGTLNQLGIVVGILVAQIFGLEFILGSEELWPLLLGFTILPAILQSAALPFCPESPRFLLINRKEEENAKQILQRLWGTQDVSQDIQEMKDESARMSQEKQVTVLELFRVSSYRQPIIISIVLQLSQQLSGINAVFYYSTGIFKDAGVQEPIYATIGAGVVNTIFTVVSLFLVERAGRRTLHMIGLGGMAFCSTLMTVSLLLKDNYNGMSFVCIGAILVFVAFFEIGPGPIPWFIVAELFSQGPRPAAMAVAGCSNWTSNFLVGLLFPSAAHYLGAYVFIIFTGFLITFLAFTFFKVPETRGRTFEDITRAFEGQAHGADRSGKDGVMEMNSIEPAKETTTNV
Kind of experiment: [3H]2-DG uptake into LNCaP cells overexpressing GLUT3. The following applies: for inhibition at 5 µM: LNCaP cells transfected with GLUT3, 30 min. An excerpt: (§1) As information regarding the expression pattern of individual GLUT members in LNCaP cells was lacking, quantitative real time polymerase chain reaction (qRT-PCR) was used to assess the mRNA levels of the hypoxia-responsive GLUT1 and GLUT3, and three other representative GLUT members, including the class I GLUT2 and GLUT4 and the class II GLUT9. Among these five members, LNCaP cells expressed GLUT1 and, to a much lesser extent, GLUT9, while the mRNA levels of GLUTs2-4 were negligible (FIG. 3B). To examine the isoform specificity of these inhibitors, LNCaP cells were ectopically transfected with plasmids encoding GLUT1, GLUT3, GLUT4, or GLUT9 vis-à-vis the pCMV control vector so that the increased glucose uptake in GLUT-transfected cells relative to pCMV control cells was indicative of the activity of the ectopically expressed GLUT protein.
(§2) Glucose Uptake Assay. LNCaP cells were seeded in six-well plates (3×10^5 cells/well) for 24 h. Cells were washed twice with Krebs-Ringer phosphate buffer (126 mM NaCl, 2.5 mM KCl, 25 mM NaHCO3, 1.2 mM NaH2PO4, 1.2 mM MgCl2, 2.5 mM CaCl2, pH 7.4) and were then treated with individual agents in Krebs-Ringer phosphate buffer. After 1.5 h, glucose uptake was initiated by adding 1 mL Krebs-Ringer buffer containing […] [^3H]2-DG (PerkinElmer Life Science) and […] non-radioactive 2-DG and was terminated by washing with cold PBS. The cells were lysed in […] lysis buffer (10 mM Tris-HCl pH 8.0, 0.1% SDS) and aliquots were taken for measurement of radioactivity using a scintillation counter (Beckman LS6500).
(§3) Plasmid Construction, Transient Transfection and Immunoblotting. The full length GLUT1, GLUT4, and GLUT9 ORF cDNA clones were purchased from Addgene (Cambridge, Mass.) and GLUT3 ORF cDNA was purchased from Origene Technologies (Rockville, Md.). GLUT1, GLUT3, and GLUT9 were subcloned into the HindIII/SalI sites and GLUT4 was subcloned into the EcoRI/SalI sites of pEGFP-N2 expression vector (Clontech, Palo Alto, Calif.). […]

Another experiment has as its target T2, GLUT4 (Homo sapiens, UniProt P14672).
T2 construct: The full length GLUT1, GLUT4, and GLUT9 ORF cDNA clones were purchased from Addgene; host or cells: LNCaP
T2 sequence (P14672 1-509): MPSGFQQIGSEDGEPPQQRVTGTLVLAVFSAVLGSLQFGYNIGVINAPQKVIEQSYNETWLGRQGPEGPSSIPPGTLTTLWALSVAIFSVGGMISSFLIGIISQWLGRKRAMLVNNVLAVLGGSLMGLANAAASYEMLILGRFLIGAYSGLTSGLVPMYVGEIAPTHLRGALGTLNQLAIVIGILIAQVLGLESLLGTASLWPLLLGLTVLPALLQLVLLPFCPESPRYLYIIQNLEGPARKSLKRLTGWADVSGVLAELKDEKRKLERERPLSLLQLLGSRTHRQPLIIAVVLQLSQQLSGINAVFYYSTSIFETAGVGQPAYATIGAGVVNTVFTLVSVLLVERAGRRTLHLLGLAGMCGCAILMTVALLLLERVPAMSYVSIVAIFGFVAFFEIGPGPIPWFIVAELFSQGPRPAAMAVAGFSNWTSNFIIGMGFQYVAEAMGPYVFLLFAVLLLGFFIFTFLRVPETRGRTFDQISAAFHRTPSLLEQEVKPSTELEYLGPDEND
Kind of experiment: [3H]2-DG uptake into LNCaP cells overexpressing GLUT4. The conditions noted are these: for inhibition at 5 µM: LNCaP cells transfected with GLUT4, 30 min.
Description: as §1, §2, §3

In the next experiment the test system is MDAMB-468 cells. Kind of experiment: MTT cell viability assay, MDAMB-468. The conditions noted are these: Homo sapiens, MDA-MB-468, 72 h, 10% FBS. How it is done:
Cell Viability Assay. Cell viability was determined using the 3-(4,5-dimethylthiazol-2-yl)-2,5-diphenyltetrazolium bromide (MTT) assay. Cancer cells were seeded at 5000 cells/well and normal cells were seeded at 8000 cells/well in 96-well plates and incubated in 10% FBS-supplemented medium for 24 h. Cells were then treated with individual agents for 72 h. Drug-containing medium was replaced with medium containing MTT (0.5 mg/mL), followed by incubation at 37° C. for 1 h. After removal of medium, the reduced MTT dye in each well was solubilized in 100 μL of DMSO and absorbance at 570 nm was measured.
Compound 30 was evaluated for antiproliferative activity in panels of different human cancer cells lines, including those of prostate, breast and pancreatic cancers. In all experiments, cells were treated with a range of concentrations of Compound 30 in the presence of 10% fetal bovine serum (FBS). Cell viability was then determined after 72 h of treatment using the 3-(4,5-dimethylthiazol-2-yl)-2,5-diphenyltetrazolium bromide (MTT) assay. […] It is noteworthy that despite this high antiproliferative potency, normal human prostate epithelial cells (PrECs) were resistant to the cytotoxic effect of Compound 30 even at 10 μM.

The term inhibition denotes how much of the control response was suppressed. The low end stands for a weak effect, the high end for a strong effect. For `CCC(CC)CN1C(=O)S/C(=C\c2ccc(O)c(C(F)(F)F)c2)C1=O` [Compound 5], the inhibition at 5 µM against GLUT3 worked out at 41%; on GLUT4, 32%.
By IC50 is commonly meant the concentration that gives 50% inhibition. As to `CC(CN1C(=O)S/C(=C\c2ccc(O)c(C(F)(F)F)c2)C1=O)(CC(F)(F)F)CC(F)(F)F` [Compound 30, 5-(4-Hydroxy-3-trifluoromethyl-benzylidene)-3-[4,4,4-trifluoro-2-methyl-2-(2,2,2-trifluoro-ethyl)-butyl]-thiazolidine-2,4-dione], the IC50 is ≥ 5 µM at GLUT3 (LNCaP cells overexpressing GLUT3, read-out: IC50 for GLUT3-mediated [3H]2-DG uptake); ≥ 5 µM on GLUT4 (LNCaP cells overexpressing GLUT4, read-out: IC50 for GLUT4-mediated [3H]2-DG uptake); 1.5 µM in the experiment on MDAMB-468 cells. Besides, the inhibition at 5 µM at GLUT3 was 48%; against GLUT4, 42%.
